Publication PMC2818873 (Bioorganic & medicinal chemistry, 2009)

What was measured:
[1] = system: folyl poly-γ-glutamate synthetase (FPGS); settings: cited from earlier work
[2] = target: T1, P. carinii DHFR (Pneumocystis carinii, UniProt P16184); format: biochemical; settings: IC50 rat liver DHFR / IC50 P. carinii DHFR
T1 sequence (P16184 1-206): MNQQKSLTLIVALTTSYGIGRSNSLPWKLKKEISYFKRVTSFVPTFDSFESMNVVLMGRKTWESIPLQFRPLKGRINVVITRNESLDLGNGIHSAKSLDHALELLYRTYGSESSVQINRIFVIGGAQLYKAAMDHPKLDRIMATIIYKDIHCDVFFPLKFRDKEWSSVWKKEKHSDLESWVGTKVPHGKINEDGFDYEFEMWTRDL

Selectivity ratio rl/pc [2]	SMILES	FPGS substrate activity [1]
–	Cc1c(Sc2ccc(C(=O)N[C@@H](CCC(=O)O)C(=O)O)cc2)[nH]c2nc(N)nc(N)c12 [Compound 4]	reasonable FPGS substrate activity
>10	Cc1c(Sc2cccc3ccccc23)oc2nc(N)nc(N)c12 [Compound 6, 2,4-Diamino-5-methyl-6-(1-naphthylthio)furo[2,3-d]pyrimidine]	–
